From patent US9446127B2, “Compositions including androgen receptor degradation (ARD) enhancers and methods of prophylactic or therapeutic treatment of skin disorders and hair loss” (AndroScience Corporation, priority 2007, dated 2016)

How the values were obtained:
[1] = tested on: PPARγ, PPARβ, RXRα, ERα and Erβ, ERK, HSP70 and actin; assay: Specificity Western blot in T47D cell lysates, other receptor proteins; type: cell-based, human; conditions: T47D cell lysates (FIG. 6)
Experimental: Human prostate cancer LNCaP cells and T47D cells were plated at a density of 7×10^5 cells per 60 millimeter tissue culture dish in […] medium containing 10% FBS. The medium was changed to RPMI or DME medium containing 10% charcoal-stripped serum 24 hours later to deplete cellular androgens or estrogens. After another 24 hours, treatment with the test compounds began. The test dose of ASC-J9 was 1, and 5 and micromolar. LNCap cells also received dihydrotestosterone (DHT) (3 nanomolar). Control cells received a corresponding amount of the vehicle, dimethylsulfoxide (DMSO) (<0.04%) for an equivalent exposure time. Cells were incubated with ASC-J9 for 24 hours, and were lysed in 250 microliters of 1×SDS/PAGE loading buffer. Approximately 40 micrograms of total cellular protein was loaded in each lane of a pre-cast gel (NuPAGE, Invitrogen). Protein separation and transfer were performed following the manufacturer's instructions.

[2] = target: T1, wild type androgen receptor (GFPAR) (Homo sapiens, UniProt P10275); assay: Fluorescence microscopy of COS-1 cells transfected with GFPAR; type: cell-based; conditions: COS-1, 5 micromolar
T1 construct: GFP (green fluorescent protein); expressed in transfected cells; host or cells: COS-1 (monkey kidney)
T1 sequence (P10275 1-920): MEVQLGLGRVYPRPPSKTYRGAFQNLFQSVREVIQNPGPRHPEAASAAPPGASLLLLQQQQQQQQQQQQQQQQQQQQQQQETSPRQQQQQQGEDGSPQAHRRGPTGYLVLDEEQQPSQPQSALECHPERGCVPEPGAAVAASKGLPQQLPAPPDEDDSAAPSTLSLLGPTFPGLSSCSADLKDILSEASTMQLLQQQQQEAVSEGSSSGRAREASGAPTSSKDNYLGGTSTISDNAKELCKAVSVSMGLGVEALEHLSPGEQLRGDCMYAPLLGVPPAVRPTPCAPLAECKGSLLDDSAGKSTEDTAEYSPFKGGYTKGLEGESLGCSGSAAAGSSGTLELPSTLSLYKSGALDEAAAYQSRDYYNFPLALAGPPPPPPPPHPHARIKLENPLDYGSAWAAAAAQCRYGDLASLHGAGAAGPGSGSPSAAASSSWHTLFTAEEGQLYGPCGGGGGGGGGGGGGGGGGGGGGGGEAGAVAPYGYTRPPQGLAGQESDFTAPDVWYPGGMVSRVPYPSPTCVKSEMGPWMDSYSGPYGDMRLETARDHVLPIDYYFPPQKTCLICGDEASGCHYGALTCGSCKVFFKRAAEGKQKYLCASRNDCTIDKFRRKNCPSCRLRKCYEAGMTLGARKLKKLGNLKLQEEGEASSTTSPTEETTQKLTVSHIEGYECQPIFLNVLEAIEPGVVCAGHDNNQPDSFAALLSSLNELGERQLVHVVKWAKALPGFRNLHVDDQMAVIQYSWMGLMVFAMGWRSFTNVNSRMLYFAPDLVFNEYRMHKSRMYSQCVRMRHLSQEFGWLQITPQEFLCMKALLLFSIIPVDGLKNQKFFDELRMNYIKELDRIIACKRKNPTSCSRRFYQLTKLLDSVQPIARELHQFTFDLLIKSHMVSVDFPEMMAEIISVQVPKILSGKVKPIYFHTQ
Experimental: Monkey kidney COS-1 cells were plated at a density of 3×10^4 cells per 0.5-milliliter volume onto alcohol-cleaned and sterilized cover slips placed in 35-millimeter suspension culture dishes containing Dulbecco's modified Eagle's (DME) medium containing 10% FBS. The cells were transfected with plasmids containing the wild type AR (GFPAR) or poly Q49 (plasmid GFPARQ49) mutant androgen receptor and green fluorescent protein (GFP) as a reporter. For each coverslip, 12.3 microliters SuperFect was added to 3.075 micrograms plasmid in 102.5 microliters DME medium (to give a 1:4 ratio of DNA to SuperFect reagent); the mixture was vortexed briefly, and the complex allowed to form over 15 minutes. Each mixture then received 897 microliters CD/DME and was mixed gently. The resulting 1-milliliter volumes were added to the dishes containing the coverslips (final plasmid concentration was […] per dish). Cells were allowed to incubate with the transfection solution for 5 hours, then the medium was changed to fresh 1.5 milliliters CD/DME medium with either vehicle (DMSO) only added or ASC-J9 (final concentration 5 micromolar). […] The coverslips were air-dried, mounted on slides with a glycerol-based mounting agent, and stored at 4 degrees Celsius if necessary prior to observation with fluorescence microscopy. […]

COc1ccc(C=CC(=O)C=C(O)C=Cc2ccc(OC)c(OC)c2)cc1OC [ASC-J9, 5-hydroxy-1,7-bis(3,4-dimethoxyphenyl)-1,4,6-heptatrien-3-one]
expression of other receptor proteins [1]: not affected
GFPAR fluorescence (expression of wild type AR) [2]: reduces (or degrades) the expression of AR
